Results reported in a melting point compilation (Tetko et al.; mined from patent text by program, amines drawn as free bases though some values may be those of a salt).
Residues, ends and D or L forms follow the SMILES beside them. *: point of attachment. Cbz = O=C(OCc1ccccc1)*; OtBu = CC(C)(C)O*; βAla = NCCC(=O)O

With CCCCCSc1cc(C(=O)O)cc(S(N)(=O)=O)c1Oc1ccccc1 the melting point was 180 to 182 °C. For COc1cc2c(cc1Cl)NC(=O)C2=NNc1ccc(S(N)(=O)=O)cc1, the melting point was greater than 250 °C. Compound CC(C)C(NC(=O)C(CC(=O)OC(C)(C)C)NC(=O)CCNC(=O)OCc1ccccc1)C(=O)OC(C)(C)C (centres undefined) ({Cbz-βAla}-Asp(OtBu)-Val-OtBu; configuration not given here) has a melting point of 126 °C. For CC1(C)[C@@H](CN2CCCS2(=O)=O)CC[C@@]1(C)NCC(=O)N1C[C@@H](F)C[C@H]1C#N, the melting point was 126 to 128 °C. For COC(=O)On1c(C(=O)OC)cc2c(C)ccc(C)c21, the melting point was 75 to 80 °C. Work on NS(=O)(=O)c1cccc(NC(=O)c2cnn3c(C(F)F)cc(-c4ccc(Cl)cc4)nc23)c1 yielded a melting point of 278 °C. For O=Cc1cc2c(s1)CCCc1cc(=O)n(-c3ccc(Cl)cc3)nc1-2, the melting point was 170 to 172 °C. Clc1ccc2snc(-c3ccc(C4=NCCN4)cc3)c2c1 gave a melting point of 195 °C. Work on CS(=O)(=O)c1ccc(-c2cnn(-c3ccc(F)c(F)c3)c(=O)c2-c2ccc(Cl)cc2)cc1 yielded a melting point of 187 to 188 °C. With COc1ccc(CCc2nnc(-c3ccc4nccn4c3)o2)cc1C(F)(F)F the melting point was 150 to 151 °C. COc1ccc(Nc2nc(OCC3CCCCC3)c3[nH]cnc3n2)cc1 gave a melting point of 189 to 192 °C. Compound COC(=O)CC(S)C(CC(C)C)C(=O)NC(Cc1ccccc1)C(N)=O (centres undefined) has a melting point of 64 to 66 °C. Compound OCC=C[C@@H]1O[C@H]1C#CC#CC#Cc1ccccc1 (relative stereo) has a melting point of 65 to 66 °C. For COc1ccc(-n2cnc3c(-c4ccc(C(F)(F)F)cc4F)ncnc32)cc1, the melting point was 181 to 183 °C. For OC(c1cc(-c2ccc(F)cc2)c(-c2ccc(F)cc2)[nH]1)C(F)(F)F (centres undefined), the melting point was 121 to 122 °C. CCCCCCCCCCSc1ccc(Br)cc1 gave a melting point of 37 to 39 °C. COc1cccc(-c2nnc(-c3ccoc3)o2)c1 showed a melting point of 70 to 71 °C. Work on C#CCCOc1cc(/C=C/C(=O)Nc2ccccc2C(=O)O)ccc1OC yielded a melting point of 197 to 198 °C. Nc1ccc(F)c(F)c1NC(=S)Nc1c(Cl)cccc1Cl gave a melting point greater than 310 °C. In the case of Fc1cc(N=C2NCCN2)c(F)c(F)c1F, the melting point is reported as 141 to 143 °C. Work on CCCCn1ccc(C(=O)c2cc(C(C)(C)C)c(O)c(C(C)(C)C)c2)c1 yielded a melting point of 101 to 103 °C. Cc1ncnc(-c2cc([N+](=O)[O-])c(F)cc2F)c1Cl showed a melting point of 95 to 97 °C. Work on Nc1ncc(CCCCc2ccc(Cl)cc2)c(N)n1 yielded a melting point of 159 to 162 °C. Work on Cc1ccc(CN2Cc3cncn3CC2=O)cc1 yielded a melting point of 105 to 108 °C. With O=C(N1CCN(c2ccncc2Cl)CC1)N1CCN(S(=O)(=O)c2ccc(F)cc2)CC1 the melting point was 143 to 144 °C. Work on COc1ccc2c(c1)CCC(CC#N)C2=O (centres undefined) yielded a melting point of 90 to 93 °C. Compound CNS(=O)(=O)c1cc2c(c(C(=O)NC3CCN(C4CCCCC4)C3)c1)OCCO2 (centres undefined) has a melting point of 160 to 161 °C. COc1cc2oc(=O)c3c(c2cc1OC)CCN(CCN1CC2CCCC(C2)C1)C3 gave a melting point of 122 to 125 °C. In the case of O=C1N[C@H]2CCN(C(=O)OCc3ccccc3)[C@H]2[C@H]1C1CC1 (relative stereo), the melting point is reported as 141 to 149 °C. For O=C(O)Cc1c(Sc2ccccc2)c2cc(F)ccc2n1Cc1ccc(Cl)cc1, the melting point was 168 °C. With COc1c(Cl)ccc(-c2cc(N)c(Cl)c(C(=O)N3CCCO3)n2)c1F the melting point was 204 to 207 °C. CCOc1nnc2cc(Cl)ccc2n1 gave a melting point of 90 to 92 °C. With Cc1nc2ccc(N3CC4CNCC4C3)nn2c1-c1ccnc(CN)c1 (centres undefined) the melting point was 169 °C. For COc1ccc(C(=O)Nc2cc(NC(=O)c3cccc(N(C)S(C)(=O)=O)c3)ccc2C)cc1OC, the melting point was 168 to 169 °C. Compound COc1ccc(CNc2n[nH]cc2C#N)cc1OC1CCCC1 has a melting point of 159 to 160 °C. Cc1nc2c(OCc3ccccc3)cc(C(=O)N(C)C)cn2c1C showed a melting point of 160 °C. For CC(=O)NCCn1ccc2c1-c1ccc(Cl)cc1CC2, the melting point was 144 to 145 °C. Work on COc1cc(N2CCN([C@H]3CC[C@H](c4cn(C)c5ccc(C#N)cc54)CC3)CC2)c2ncccc2c1Cl yielded a melting point of 215 to 216 °C. For Cc1ccc2c(c1)c(-c1ccnc3c(C(F)(F)F)cccc13)c(C)n2CC(=O)O, the melting point was 145 °C. CCCCn1nnnc1-c1ccc(C(=O)NCC2CCCC2(C)C)cc1 (centres undefined) showed a melting point of 106 to 109 °C. CCOC(=O)CNC(=O)COc1c(F)cc(CSCCNS(=O)(=O)c2ccc(Cl)cc2)cc1F gave a melting point of 88.5 to 89.5 °C. In the case of O=C1COc2cc(NCC(=O)N3CCC(Oc4ccc(Cl)cc4)CC3)ccc2N1, the melting point is reported as 207 to 210 °C. Work on CCC1(CCCCCl)C(=O)Nc2cc(F)ccc21 (centres undefined) yielded a melting point of 95 to 97 °C. For COC(=O)c1ccc(C=CC=O)cc1, the melting point was 99 to 101 °C. Work on CCCCCCCCCCCCn1nnnc1NC(=O)Nc1c(C(C)C)cccc1C(C)C yielded a melting point of 80 to 88 °C. For CN(C)C(=O)Nc1ccc(SCCc2ccccc2)c(Cl)c1, the melting point was 133 to 134 °C. CCN1CC(=O)N(c2c(C(C)C)cccc2C(C)C)C1=S gave a melting point of 159 to 161 °C. In the case of Cc1ccc(C(O)(c2ccc(C)cc2)C2CCN(Cc3ccccc3)CC2)cc1, the melting point is reported as 115 to 117 °C. Compound N#Cc1ccc(C=Cc2ncn(CC(O)(Cn3cncn3)c3ccc(F)cc3F)n2)cc1 (centres undefined) has a melting point of 189 to 191 °C. CCOC(=O)c1cc(NCc2c(C)cccc2C)c2nc(C)n(OC)c2c1 showed a melting point of 165 to 166 °C. With NC(=O)Cc1c[nH]c2ncccc12 the melting point was 180 to 181 °C. With CCCCOc1ccc(-c2ccc(C)c(C#N)c2C#N)cc1 the melting point was 152 °C. In the case of CC1c2ccccc2CCN1C(=O)c1cc2ncc(Br)cn2n1 (centres undefined), the melting point is reported as 121 to 123 °C. O=C(Nc1ncco1)c1cnc2c(C(F)(F)F)cccc2c1O gave a melting point of 304 °C. CNC(Cc1ccccc1NC(=O)C(C)(C)C)c1cccnc1 (centres undefined) gave a melting point of 91.5 to 96 °C. CC(=O)c1c(C)nc2c(OCc3c(Cl)ccc(S(=O)(=O)N4CCC[C@H]4C(=O)NCCCNC(=O)c4ccc(C=NN)cc4)c3Cl)cccn12 gave a melting point of 158 to 160 °C. O=C(CN1CCOCC1)NC(c1ccccc1)C1(c2ccc(Cl)cc2)CCC1 (centres undefined) showed a melting point of 95 to 97 °C. Work on COc1ccc(C2(c3ccc(OC)cc3)CCN(C[C@H]3CN(C)[C@@H]4Cc5c[nH]c6cccc(c56)[C@@]4(OC)C3)CC2)cc1 yielded a melting point of 215 to 222 °C. With ClCCC(=C(c1ccccc1)c1ccc(OCCN2CCCC2)cc1)c1ccccc1 the melting point was 112 to 115 °C. With O=C(O)/C=C(/c1ccccc1)c1ccc2ccccc2c1 the melting point was 170 to 172 °C. CCc1cc2c(s1)S(=O)CCc1cc(=O)n(-c3ccc(Cl)cc3)nc1-2 (centres undefined) gave a melting point of 173 to 174 °C. In the case of COc1cc2c(cc1OC)C(C)(CCCCl)OCC2 (centres undefined), the melting point is reported as 77 to 79 °C. For Cn1nc(-c2cc3c(cc2F)OCC(=O)N3)c(Cl)c1C(F)(F)F, the melting point was 207 °C. CCC(Cn1cncn1)(C(N)=O)c1ccc(Cl)cc1Cl (centres undefined) gave a melting point of 164 to 165 °C. Compound CC(C)(C)OC(=O)c1ncn2c1[C@@H]1CCCN1C(=O)c1cc(Cl)ccc1-2 has a melting point of 157 to 158 °C. Compound CCOP(=O)(Cc1ccc(NC(=O)CCCc2cnoc2-c2ccccc2)cc1)OCC has a melting point of 128 to 129 °C. In the case of COc1cc2c(cc1Cl)CCOC2c1ccc([N+](=O)[O-])cc1 (centres undefined), the melting point is reported as 150 to 153 °C. With CCCN(c1nc(-c2ccc(OC)cc2Cl)c(C)s1)c1cc([N+](=O)[O-])ccc1OC the melting point was 97 °C. Work on CC(C)(C)OC(=O)NC1CCc2cc(C(=O)O)ccc2C1 (centres undefined) yielded a melting point of 210 to 213 °C.
